Test results taken from PMC6160999, “Pharmacokinetics, Tissue Distribution and Excretion of a Novel Diuretic (PU-48) in Rats” (Pharmaceutics, 2018).
Like-named read-outs stand apart in the source and are kept apart here.

Columns and labels:
[1] = set-up: method as in PMID 24055006, PMID 23728001, PMID 9124305, PMID 2671740; details: cited from earlier work
[2] = Plasma pharmacokinetics after single oral PU-48 SNEDDS; assay type: in vivo, rat; details: for AUC(0-inf) / AUC(0-t) / Cmax / Tmax / t1/2 / half-life: rat plasma, n=6
Method: The method for quantification PU-48 in rat samples (plasma, thirteen tissues, urine and bile) has been developed and validated in our preliminary experiment. Briefly, PU-48 was quantitative analyzed by the liquid chromatography-electrospray ionization source-triple quadrupole tandem mass spectrometer (LC-MS/MS) system, which consisted of the Shimazdu LC-20AD pumpers (Shimadzu, Kyoto, Japan), a 20 μL loop and a SPD-M20A PDA detector. Chromatographic separation was accomplished on a Shimazdu Inertsil ODS-4 C18 column (2.1 × 100 mm, 3 µm, Shimadzu) and coupled to the API4000 mass spectrometer detector equipped with the Analyst 1.6 software (AB Sciex, Redwood City, CA, USA). The monitored ion transitions were mass-to-charge ratio (m/z) 289.1 → 229.2 for PU-48 and m/z 385.3 → 267.1 for the internal standard under positive mode. The mobile phase consisted of (A) water, and (B) acetonitrile, both containing 0.05% formic acid using the following gradient elution: 0–2 min (20% B), 2–8 min (20–100% B), 8–9.5 min (100% B), 9.5–13 min (20% B). Sample of 5 μL was injected. The quantification analysis of PU-48 in plasma, urine, bile and tissues (liver, muscle, and adipose tissue) were evaluated for specificity, linearity, precision, accuracy and recovery (See Supplementary Materials Tables S1–S3).
After fasting overnight with free drinking water (12 h before the experiment), eighteen rats were divided randomly into three groups, and blood samples at each time point were collected from six rats. The rats were given three doses of PU-48 (3, 6, or 12 mg/kg, respectively, 1.2 mg/mL in the SNEDDS formulation) by oral gavage. Blood samples (0.3 mL) were collected from the ophthalmic venous plexus at the predose, 0.25, 0.5, 1, 2, 4, 6, 8, 12, 24, 36, and 48 h post-dosing (total 12 time points) in heparinized tubes. The blood samples were centrifuged at 2500 rpm (1200× g) for 15 min and the plasma was stored at −20 °C until analysis.
The non-compartmental analysis method was used to calculate the pharmacokinetic parameters of PU-48 using Drug and Statistical Version 3.0 (DAS 3.0) software (the Mathematical Pharmacology Committee, Chinese Pharmacological Society, Beijing, China). The maximum peak concentration of the drug in plasma (Cmax) and the time to reach the maximum concentration (Tmax) were obtained directly from the experimental data. The area under the plasma concentration-time curves from 0 to infinity (i.e., AUC0–∞) and from 0 to the time of the last quantifiable concentration (AUC0–t) was calculated by the trapezoidal summation. The terminal elimination rate constant (Ke) was derived from the slope of the linear regression curve by fitting the natural logarithms of the terminal concentrations versus time. The terminal elimination half-life (t1/2) was calculated by 0.693/Ke. The data from the quality control (QC) samples were examined by a one-way analysis of variance (ANOVA). All values were expressed as mean ± SD (Standard Deviation).

plasma protein = assay: Plasma protein binding by equilibrium dialysis, human plasma; assay type: in vitro ADME; details: for Concentration in Buffer (post-dialysis) / Concentration in Plasma (post-dialysis) / Protein-Binding Ratio: human plasma, n=5; for Concentration in Buffer (post-dialysis) / Concentration in Plasma (post-dialysis): 37 °C 24 h
Method: The concentration of PU-48 prototype in biological sample (feces and plasma protein binding analysis) was determined using a validated high-performance liquid chromatographic (HPLC) method our preliminary experiment (See Supplementary Materials HPLC Analysis and Method Validation). Briefly, the quantitative analysis of PU-48 was performed using a HPLC consistent of model 510 pump with a model 2487 ultraviolet detector, a model Rheodyne 7725 injector, and a column oven. The analytical conditions were as follows—The detection wavelength—293 nm; analytical column—a reversed-phase Acclaim C18 (4.6 mm × 250 mm, 5.0 µm, Dionex, Sunnyvale, CA, USA); column temperature—25 °C; mobile phase—acetonitrile—distilled water at a ratio of 60:40 (v/v); flow rate—1 mL/min. In this study, the methods for the feces samples were evaluated for specificity, linearity, precision, accuracy, and recovery (See Supplementary Materials Tables S4–S6).
The binding ratio of PU-48 to plasma protein was determined by equilibrium dialysis. A volume of 1 mL of plasma with PU-48 (0.25, 1 and 4 µg/mL) was added to a semi-permeable membrane bag (plasma chamber), the bag was place into the other clean tube with 9 mL PBS (buffer chamber). The equilibrium dialysis was performed at 37 °C for 24 h. At the end of dialysis, 500 μL each of post-dialysis samples from the plasma and the buffer chambers were collected and analyzed by HPLC method. The plasma protein binding of PU-48 was calculated from the concentration of PU-48 in PBS (free concentration) and in plasma (free + bound) according to equation: Bound (%) = (Concplasma chamber − Concbuffer chamber)/Concplasma chamber × 100%.

[3] = plasma, rat, oral PU-48 SNEDDS 3 mg/kg
[4] = plasma, rat, oral PU-48 SNEDDS 6 mg/kg
[5] = plasma, rat, oral PU-48 SNEDDS 12 mg/kg

In the case of COC(=O)c1sc2nc3ccc(OC)cc3cc2c1N [PU-48, Methyl 3-amino-6-methoxythieno [2,3-b] quinoline-2-carboxylate], the “Serum levels of sodium, chloride, or potassium” value [1] is given as “did not change”, the concentration at 0.25 h [2, 3] is given as 11.9 ± 15.5 ng/mL and the concentration at 0.25 h [2, 4] is given as 51.1 ± 51.2 ng/mL. For the same molecule, the concentration at 0.25 h [2, 5] was 91.1 ± 52 ng/mL, the concentration at 0.5 h [2, 3] was 12.6 ± 11.1 ng/mL and the concentration at 0.5 h [2, 4] was 52.9 ± 46.8 ng/mL. The concentration at 0.5 h [2, 5] was 94.3 ± 49.6 ng/mL, the concentration at 1 h [2, 3] was 11.8 ± 11.2 ng/mL and the concentration at 1 h [2, 4] was 48.3 ± 32.8 ng/mL. For the same molecule, the concentration at 1 h [2, 5] was 74.8 ± 36.1 ng/mL, the concentration at 2 h [2, 3] was 13.8 ± 16.6 ng/mL and the concentration at 2 h [2, 4] was 16.8 ± 10.1 ng/mL. It also gave a concentration at 2 h [2, 5] of 19.7 ± 4.2 ng/mL, a concentration at 4 h [2, 3] of 1.1 ± 0.7 ng/mL and a concentration at 4 h [2, 4] of 2.3 ± 1.2 ng/mL. It also gave a concentration at 4 h [2, 5] of 4.3 ± 3.1 ng/mL, a concentration at 6 h [2, 3] of 0.3 ± 0.2 ng/mL and a concentration at 6 h [2, 4] of 1.2 ± 0.5 ng/mL. The concentration at 6 h [2, 5] was 2.1 ± 0.8 ng/mL, the concentration at 8 h [2, 3] was 0.5 ± 0.9 ng/mL and the concentration at 8 h [2, 4] was 0.6 ± 0.4 ng/mL. For the same molecule, the concentration at 8 h [2, 5] was 1.5 ± 0.5 ng/mL, the concentration at 12 h [2, 3] was 0.1 ± 0.1 ng/mL and the concentration at 12 h [2, 4] was 0.3 ± 0.2 ng/mL. For the same molecule, the concentration at 12 h [2, 5] was 1.1 ± 0.8 ng/mL, the concentration at 24 h [2, 4] was 0.3 ± 0.3 ng/mL and the concentration at 24 h [2, 5] was 0.1 ng/mL. It also gave a concentration at 36 h [2, 4] of 0.2 ± 0.1 ng/mL, a concentration at 36 h [2, 5] of 0.8 ± 0.9 ng/mL and a concentration at 48 h ([2]; plasma, 48 h, rat, oral PU-48 SNEDDS 12 mg/kg) of 0.2 ng/mL. It also gave an AUC(0-inf) ([2]; oral PU-48 SNEDDS 3 mg/kg) of 60.5 ± 38.5 ng·h/mL, an AUC(0-t) ([2]; oral PU-48 SNEDDS 3 mg/kg) of 60 ± 38.3 ng·h/mL and a Cmax ([2]; oral PU-48 SNEDDS 3 mg/kg) of 12.6 ± 11.1 ng/mL. For the same molecule, the Tmax ([2]; oral PU-48 SNEDDS 3 mg/kg) was 1.19 ± 0.94 h, the t1/2 ([2]; oral PU-48 SNEDDS 3 mg/kg) was 7.14 ± 2.93 h and the AUC(0-inf) ([2]; oral PU-48 SNEDDS 6 mg/kg) was 108 ± 52.5 ng·h/mL. The AUC(0-t) ([2]; oral PU-48 SNEDDS 6 mg/kg) was 107 ± 53 ng·h/mL, the Cmax ([2]; oral PU-48 SNEDDS 6 mg/kg) was 52.9 ± 46.8 ng/mL and the Tmax ([2]; oral PU-48 SNEDDS 6 mg/kg) was 0.63 ± 0.31 h. The AUC(0-inf) ([2]; oral PU-48 SNEDDS 12 mg/kg) was 181 ± 62.5 ng·h/mL, the AUC(0-t) ([2]; oral PU-48 SNEDDS 12 mg/kg) was 179 ± 60.1 ng·h/mL and the Cmax ([2]; oral PU-48 SNEDDS 12 mg/kg) was 94.3 ± 49.6 ng/mL. For the same molecule, the t1/2 ([2]; oral PU-48 SNEDDS 12 mg/kg) was 6.87 ± 3.49 h, the “Mean plasma concentration at the 48 h time point” value ([2]; rat, oral 3, 6 and 12 mg/kg, LLOQ 0.1 ng/mL) was “below the lower limit of quantitation (LLOQ)” and the half-life ([2]; rat, plasma, po, 3 mg/kg, oral PU-48 SNEDDS 3 mg/kg) was 7.1 ± 2.9 h. For the same molecule, the Tmax ([2]; rat, plasma, po, 3 mg/kg, oral PU-48 SNEDDS 3 mg/kg, read-out: Tmax) was 1.2 ± 0.9 h, the half-life ([2]; rat, plasma, po, 6 mg/kg, oral PU-48 SNEDDS 6 mg/kg) was 7 ± 2.7 h and the Tmax ([2]; rat, plasma, po, 6 mg/kg, oral PU-48 SNEDDS 6 mg/kg, read-out: Tmax) was 0.6 ± 0.3 h. For the same molecule, the half-life ([2]; rat, plasma, po, 12 mg/kg, oral PU-48 SNEDDS 12 mg/kg) was 6.9 ± 3.5 h, the Tmax ([2]; rat, plasma, po, 12 mg/kg, oral PU-48 SNEDDS 12 mg/kg, read-out: Tmax) was 0.5 ± 0.27 h and the “Concentration in Buffer (post-dialysis)” value (plasma protein; added 0.25 µg/mL) was 12 ± 3 ng/mL. The “Concentration in Plasma (post-dialysis)” value (plasma protein; added 0.25 µg/mL) was 146 ± 8 ng/mL, the “Protein-Binding Ratio” value (plasma protein; added 0.25 µg/mL) was 91.60 ± 1.57% and the “Concentration in Buffer (post-dialysis)” value (plasma protein; added 1 µg/mL) was 52 ± 3 ng/mL. The “Concentration in Plasma (post-dialysis)” value (plasma protein; added 1 µg/mL) was 611 ± 27 ng/mL, the “Protein-Binding Ratio” value (plasma protein; added 1 µg/mL) was 91.48 ± 0.64% and the “Concentration in Buffer (post-dialysis)” value (plasma protein; added 4 µg/mL) was 231 ± 29 ng/mL. The “Concentration in Plasma (post-dialysis)” value (plasma protein; added 4 µg/mL) was 2290 ± 93 ng/mL, the “Protein-Binding Ratio” value (plasma protein; added 4 µg/mL) was 89.90 ± 1.50% and the fraction unbound at 24 h (plasma protein; plasma, human, overall statement) was less than 0.1.
